Consider three molecules from patent publication US9486434B2, “Method for delivery and use of isothiocyanates for prophylaxis and/or therapy of bladder cancer” (Health Research Inc., priority 2010, dated 2016).

* marks the point of attachment. Cbz = O=C(OCc1ccccc1)*; CH2F = FC*

In series [1] the test system is cyclooxygenase-2 (Cox-2) in human bladder cancer HT1376 cells. Put plainly: Western blot analysis of Cox-2 in HT1376 cells. It counts as cell-based. To be noted: 24 h, cells overexpressing Cox-2. As for the experimental part:
FIG. 5. The effects of AITC and SF on cyclooxygenase-2 (Cox-2) expression in human bladder cancer cells. Human bladder cancer HT1376 cells that over express Cox-2 were treated with AITC or SF at the indicated concentrations for 24 h and then harvested for Western blot analysis of Cox-2. GAPDH is used as a loading control.
In general terms: A western blot detects proteins with antibodies after separation by electrophoresis.

For series [2] the following is noted: reference [18]; cited from earlier work.
Series [3] deals with α-tubulin, β-tubulin, γ-tubulin, caspase-9, caspase-3, VEGF in UM-UC-3 cells. Put plainly: Western blotting in UM-UC-3 cells (tubulins, caspases, VEGF). In kind it is cell-based, human. To be noted: co-treatment, 20 microM Z-LEHD-FMK. As for the experimental part:
(§1) FIG. 4. Effect of AITC on mitosis, tubulin expression and apoptosis in human bladder cancer UM-UC-3 cells. Cells were treated with vehicle or AITC for 24 h (each numerical value is mean±SD). A. Flow cytometry analysis for cell cycle arrest. B. Wright-Giemsa staining for counting mitotic figures. Arrows point to cells in mitosis or mitotic catastrophe. C. Immunofluorescent staining of microtubules (green color) and DNA staining with DAPI (blue color). D. Western blotting of tubulins (GAPDH as a loading control). E. Loss of mitochondrial transmembrane potential (Δψm) measured by flow cytometry. F. Western blotting of caspase-9 and caspase-3 (GAPDH as a loading control). G. Apoptotic cells (TUNEL cells) measured by flow cytometry. Cells in F and G were co-treated with or without 20 microM Z-LEHD-FMK (a caspase-9 inhibitor).
(§2) FIG. 8. Inhibition of bladder cancer development by MSP-1. Female F344 rats were inoculated with AY-27 cells intravesically via a urethra catheter to initiate development of orthotopic bladder cancer. Oral administration of MSP-1 of vehicle (water) once daily was started 1 day after cancer cell inoculation and ended 3 weeks later. The number of rats per group varied from 11-29. A. Initial (□) and final (▪) body weights. B. Tumor weight was calculated by subtracting the average normal bladder weight from tumor-bearing bladder weight. *P<0.05. Each value in A and B is mean±SEM. C. Percentage of bladder where the tumor invaded the muscle tissue. D. The effects of MSP-1 on selected anticancer targets in UM-UC-3 cells (in vitro), AY-27 cells (in vitro) and AY-27 tumors (in vivo). The cells were treated with MSP-1 at the sinigrin concentrations of 13 and 26 microM for 24 h. The bladder tumors were removed from rats treated with MSP-1 at the sinigrin doses of 9 or 90 micromols/kg once daily for 3 weeks, started 1 day after cancer cell inoculation. Cell lysates and tumor homogenates were analyzed by Western blotting, using GAPDH as a loading control.
Western blot analysis. […]

Another series relates to UM-UC-3 cells. Put plainly: Mitochondria-mediated apoptosis in UM-UC-3 cells (Δψm, cytochrome c, TUNEL). It counts as cell-based, human. The conditions noted are these: co-treatment, 20 microM Z-LEHD-FMK. As to the method: as §1
For series [4], the system named is human bladder cancer UM-UC-3 cells. Nature of the series: MTT cell growth and proliferation assay, UM-UC-3 cells. It counts as cell-based. To be noted: sinigrin by itself, without myrosinase; result not shown. As for the experimental part: (§3) FIG. 3. The effect of AITC on cell survival and proliferation. AITC was evaluated at the indicated concentrations in human bladder cancer UM-UC-3 cells, rat bladder cancer AY-27 cells, and normal human bladder epithelial cells (HUC). A. Cell growth inhibition, measured by MTT assay, 72-h AITC treatment. IC50 was calculated from nonlinear regression curve fit. B. Cell cycle arrest (□, subG1; ? , G1; ? , 5; ▪, G2/M), measured by flow cytometry, 24 h AITC treatment. C. Apoptosis induction, measured by an ELISA assay, 24 h AITC treatment. Mean±SE, n=3-6), *P<0.05.
(§4) FIG. 10. The effect of NAC-AITC on cell survival and proliferation. NAC-AITC was evaluated in both UM-UC-3 cells and AY-27 cells. (A) Chemical structures of AITC and NAC-AITC. (B) Cell growth and proliferation, measured by 3-([…])-2,5-diphenyltetrazolium bromide assay, 72 h treatment with AITC or NAC-AITC at indicated concentrations. IC50 was calculated from the non-linear regression curve fit. (C) Apoptosis, measured by an enzyme-linked immunosorbent assay, 24 h NAC-AITC treatment at 15 µM. (D) Cell cycle (open bars, G1; shaded bars, S; closed bars, G2/M), measured by flow cytometry, 24 h NAC-AITC treatment at 15 μM. *P<, 0.005, compared with control.
(§5) Assays for cell proliferation, cell cycle arrest and apoptosis. To determine the antiproliferative activity of NAC-AITC, AY-27 cells were grown in 96-well microtiter plates ([…] with 0.15 ml medium per well) for 24 h and then grown for 72 h in fresh medium (0.2 ml/well) containing a series of concentrations of NAC-AITC or solvent. Cell growth was measured at the end of treatment using the 3-([…])-2,5-diphenyltetrazolium bromide assay, from which the half maximal inhibitory concentration (IC50) of NAC-AITC was calculated. AITC was also evaluated for comparison.

Series [5] deals with rat bladder cancer AY-27 cells. Nature of the series: MTT cell growth and proliferation assay, AY-27 cells. In kind it is cell-based. The conditions noted are these: sinigrin by itself, without myrosinase; result not shown. As to the method: as §3, §4, §5
The test system of series [6] is orthotopic AY-27 bladder tumor. Nature of the series: Orthotopic rat bladder cancer model. In kind it is in vivo, rat (female F344). The conditions noted are these: sinigrin.
Source text: FIG. 6. […] Female F344 rats were inoculated intravesically with bladder cancer AY-27 cells to initiate development of orthotopic bladder tumor. Oral administration of AITC at 0, 10, 25, 50 and 300 micromols/kg once daily was started 1 day after AY-27 cell inoculation and ended 3 weeks later. The number of rats per group varied from 6 to 33; some of the data, particularly the control group (n=33) and the group treated with the lowest dose of AITC (n=23), were pooled from several experiments. A. The initial and final body weights. B. The weights of bladder tumors. […] C. Percentage of bladders where the tumor invaded the muscle tissue. D. H/E staining of the normal rat bladder wall (D1), a superficial rat bladder tumor (D2), and a rat bladder tumor that invaded the muscle layer (D3).
as §2, with “Inhibition of bladder cancer development by MSP-1.” left out, “B. Tumor weight was calculated by subtracting the average normal bladder weight from tumor-bearing bladder weight. *P<0.05.” left out, “The cells were treated with MSP-1 at the sinigrin concentrations of 13 and 26 microM for 24 h.” left out
FIG. 9. […] Female F344 rats were inoculated with bladder cancer AY-27 cells to initiate development of orthotopic bladder tumor. Oral administration of the powder (sinigrin and glucoraphanin: each at 10 micromols/kg) once daily was started 1 day after AY-27 cell inoculation and ended 3 weeks later. The number of rats per group was 9-10. Each value is mean±SE.
FIG. 12. […] Bladder cancer was initiated in female F344 rats by orthotopic inoculation of bladder cancer AY-27 cells. Oral administration of NAC-AITC at 10 μmmol/kg body wt once daily was started 1 day after cancer cell inoculation and ended 3 weeks later. There were 23 rats in the control group and 15 rats in the treatment group. (A) The initial (open bars) and final (closed bars) body weight. (B) Bladder tumor weight. Each value is a mean±SE. (C) Percentage of bladders where the tumor invaded the muscle tissue.
AITC was evaluated in an orthotopic rat bladder cancer model. […] Daily oral administration of AITC was initiated one day after instillation of AY-27 cells and continued for 3 weeks. AITC was evaluated at 4 dose levels: 10, 25, 50 and 300 micromols/kg. […] FIG. 6D depicts representative images of normal rat bladder wall (D1), a superficial AY-27 rat bladder tumor (D2), and a muscle-invasive AY-27 rat bladder tumor (D3).
A syngeneic orthotopic rat bladder cancer model.

The nature of series [7]: Conversion of sinigrin to AITC in vivo. To be noted: rat.

In the case of `C[S+]([O-])CCCCN=C=S` (centres unmarked) [SF, sulforaphane], the “effect on Cox-2 expression” value in series [1] is “strongly down regulates”. For the same molecule, in series [2], the “delivery to bladder tissue” value is reported as “selectively delivered to bladder tissue through urinary excretion”.

As for Cbz-LEHD-CH2F [reference compound], the “effect on AITC-caused activation of the caspases” value in series [3] was “completely blocked”. For the same molecule, in the series with UM-UC-3 cells, the “effect on AITC-caused formation of TUNEL-positive cells” value is “completely blocked”.

As for `C=CCC(=NOS(=O)(=O)O)S[C@@H]1O[C@H](CO)[C@@H](O)[C@H](O)[C@H]1O` (stereo in doubt) [sinigrin, reference compound], the “activity in vitro on bladder cancer cell line” value in series [4] and in series [5] was “inactive” each time. The “efficacy in the orthotopic rat bladder cancer model” value in series [6] is given as “ineffective”. In addition, the “sinigrin converted to AITC in vivo” value in series [7] is given as 3-5%.
